Test results published in US20130204033A1, “ANTIPROLIFERATIVE COMPOUNDS, CONJUGATES THEREOF, METHODS THEREFOR, AND USES THEREOF” (Medarex, Inc., priority 2009, published 2013).
Where two headings read alike, the source gives them in different places.

What was measured:
Assay type in all cases: cell-based, human
[1] = system: PC3; assay: 3H thymidine proliferation assay, PC3
Method in brief: (§1)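 Seeding: 1.0×10^4 cells/well, 3 h. Dosing: 1:3 serial dilutions, 72 h. Label: ^3H-thymidine 1.0 μCi/well for last 24 h, scintillation read; EC50 = 50% proliferation reduction.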

[2] = system: BT474; assay: ATP luminescence proliferation assay, BT474
Protocol: (§2) This example generally describes the procedures used to assay the antiproliferative activity of compounds of this invention or their conjugates. Human tumor cell lines were obtained from the American Type Culture Collection (ATCC), P.O. Box 1549, Manassas, Va. 20108, USA, and cultured according to instruction from the ATCC. Cells were seeded at 1.0×10^3 or 1.0×10^4 cells/well in 96-well plates for 3 h for ATP assays or ^3H thymidine assays, respectively. 1:3 serial dilutions of free (unconjugated) compounds or their conjugates were added to the wells. Plates were allowed to incubate for 24 to 72 h. The ^3H thymidine plates were pulsed with 1.0 μCi of ^3H-thymidine per well for the last 24 hours of the total incubation period, harvested, and read on a Top Count Scintillation Counter (Packard Instruments, Meriden, Conn.). ATP levels in the ATP plates were measured using the […]-GLO® Luminescent Cell Viability kit following the manufacturer's manual and read on a GLOMAX® 20/20 luminometer (both from Promega, Madison, Wis., USA). The EC50 values—the concentration at which an agent inhibits or reduces cell proliferation by 50% —were determined using PRISM™ software, version 4.0 (GraphPad Software, La Jolla, Calif., USA).
(§3) Using the ^3H thymidine or the ATP luminescence assay, or both, the activities of compounds of this invention were assayed against the following cancer cell lines: HCT-15 (colorectal cancer, multi-drug resistant (MDR)); Hep3B (liver cancer); LNCaP (prostate cancer, androgen receptor positive (AR^+)); MDA-MB-231 (breast cancer, estrogen receptor, progesterone receptor, and Her2 negative (triple negative)); A2058 (melanoma); U-87 MG (glioblastoma); NCI-H460 (NSCLC); A549 (NSCLC); HPAC (pancreatic cancer, primary); PC3 (prostate cancer, AR); BT474 (breast cancer, Her2 highly positive (Her2hi)); SKOV3 (ovarian cancer, Her2hi); 786-O (renal cancer); UO-31 (renal cancer, MDR); NCI-H740 (SCLC); DMS53 (SCLC); SK-BR3 (breast cancer, Her2hi); ZR-75 (breast cancer, estrogen receptor positive); OVCAR3 (ovarian cancer); HL-60 (APL); OVCAR8/Adr (ovarian cancer, MDR); CEM-Cl (ALL); Nomo-1 (AML); RPMI-8226 (MM)); Raji (lymphoma); SW-480 (colorectal cancer, metastatic); SW-620 (colorectal cancer); and H226 (lung cancer). (Not all compounds were assayed against all cell lines.)
(§4) Table 3 provides the data for the ATP luminescence proliferation assays, with an incubation period of 48, 72, or 96 h, as noted.

[3] = system: 786-O; assay: 3H thymidine proliferation assay, 786-O
Method in brief: as §1

[4] = system: Nomo-1; assay: ATP luminescence proliferation assay, Nomo-1
Protocol: as §2, §3, §4

[5] = system: SKOV3; assay: 3H thymidine proliferation assay, SKOV3
Method in brief: as §1

[6] = system: A549; assay: 3H thymidine proliferation assay, A549
Method in brief: as §1

[7] = system: ZR-75; assay: 3H thymidine proliferation assay, ZR-75
Method in brief: as §1

[8] = system: SKOV3; assay: ATP luminescence proliferation assay, SKOV3
Protocol: as §2, §3, §4

[9] = system: RPMI-8226; assay: 3H thymidine proliferation assay, RPMI-8226
Method in brief: as §1

[10] = system: UO-31; assay: ATP luminescence proliferation assay, UO-31
Protocol: as §2, §3, §4

[11] = system: RPMI-8226; assay: ATP luminescence proliferation assay, RPMI-8226
Protocol: as §2, §3, §4

[12] = system: HL-60; assay: 3H thymidine proliferation assay, HL-60
Method in brief: as §1

[13] = system: HPAC; assay: ATP luminescence proliferation assay, HPAC
Protocol: as §2, §3, §4

[14] = system: BT474; assay: 3H thymidine proliferation assay, BT474
Method in brief: as §1

[15] = system: U-87 MG; assay: 3H thymidine proliferation assay, U-87 MG
Method in brief: as §1

[16] = system: DMS53; assay: 3H thymidine proliferation assay, DMS53
Method in brief: as §1

[17] = system: SW-620; assay: ATP luminescence proliferation assay, SW-620
Protocol: as §2, §3, §4

[18] = system: 786-O; assay: ATP luminescence proliferation assay, 786-O
Method in brief: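 Read-out: luminescent ATP cell viability after 48, 72 or 96 h incubation, as noted, with 1:3 serial dilutions of unconjugated compounds or their conjugates. Plating was 1.0×10^3 cells/well, 3 h before dosing. EC50 = concentration giving 50% inhibition of proliferation.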

[19] = Homo sapiens, PC-3, read-out: EC50, PC3, 3H thymidine method, 72 h incubation
[20] = Homo sapiens, BT-474, 48 h, read-out: EC50 BT474 (48 h), ATP luminescence, BT474, 48 h incubation
[21] = Homo sapiens, 786-0, read-out: EC50, 786-O, 3H thymidine method, 72 h incubation
[22] = Homo sapiens, NOMO-1, 48 h, read-out: EC50 Nomo-1 (48 h), ATP luminescence, Nomo-1, 48 h incubation
[23] = Homo sapiens, SK-OV-3, read-out: EC50, SKOV3, 3H thymidine method, 72 h incubation
[24] = Homo sapiens, A549, read-out: EC50, A549, 3H thymidine method, 72 h incubation
[25] = Homo sapiens, ZR75, read-out: EC50, ZR-75, 3H thymidine method, 72 h incubation
[26] = Homo sapiens, SK-OV-3, 72 h, read-out: EC50 SKOV3 (72 h), ATP luminescence, SKOV3, 72 h incubation
[27] = Homo sapiens, RPMI-8226, read-out: EC50, RPMI-8226, 3H thymidine method, 72 h incubation
[28] = Homo sapiens, UO-31, 48 h, read-out: EC50 UO-31 (48 h), ATP luminescence, UO-31, 48 h incubation
[29] = Homo sapiens, HL-60, read-out: EC50, HL-60, 3H thymidine method, 72 h incubation
[30] = Homo sapiens, 72 h, read-out: EC50 HPAC (72 h), ATP luminescence, HPAC, 72 h incubation
[31] = Homo sapiens, BT-474, read-out: EC50, BT474, 3H thymidine method, 72 h incubation
[32] = Homo sapiens, U-87 MG, read-out: EC50, U-87 MG, 3H thymidine method, 72 h incubation
[33] = Homo sapiens, DMS-53, read-out: EC50, DMS53, 3H thymidine method, 72 h incubation
[34] = Homo sapiens, SW-620, 96 h, read-out: EC50 SW-620 (96 h), ATP luminescence, SW-620, 96 h incubation
[35] = Homo sapiens, 786-0, 72 h, read-out: EC50 786-O (72 h), ATP luminescence, 786-O, 72 h incubation

Compound CC[C@H](C)[C@H](NC(=O)[C@H]1CCCCN1C)C(=O)N(COC(=O)CC(C)C)[C@H](C[C@@H](O)c1nc(C(=O)N[C@@H](Cc2ccccc2)C(=O)OC)cs1)C(C)C [Compound 28] has an EC50 ([1]; 3H thymidine method, 72 h incubation, read-out: EC50, PC3) of over 100 nM, an EC50 ([2]; ATP luminescence, BT474, 48 h incubation, read-out: EC50 BT474 (48 h)) of 12 nM and an EC50 ([3]; 3H thymidine method, 72 h incubation, read-out: EC50, 786-O) of 61 nM. The EC50 ([4]; ATP luminescence, Nomo-1, 72 h incubation, read-out: EC50 Nomo-1 (72 h)) was 0.82 nM, the EC50 ([5]; 3H thymidine method, 72 h incubation, read-out: EC50, SKOV3) was 9.9 nM and the EC50 ([6]; 3H thymidine method, 72 h incubation, read-out: EC50, A549) was over 100 nM. For the same compound, the EC50 ([7]; 3H thymidine method, 72 h incubation, read-out: EC50, ZR-75) was 4.3 nM, the EC50 ([8]; ATP luminescence, SKOV3, 72 h incubation, read-out: EC50 SKOV3 (72 h)) was 11 nM and the EC50 ([9]; 3H thymidine method, 72 h incubation, read-out: EC50, RPMI-8226) was 8.7 nM. It also gave an EC50 ([10]; ATP luminescence, UO-31, 48 h incubation, read-out: EC50 UO-31 (48 h)) of 5.8 nM, an EC50 ([11]; ATP luminescence, RPMI-8226, 72 h incubation, read-out: EC50 RPMI-8226 (72 h)) of 10 nM and an EC50 ([12]; 3H thymidine method, 72 h incubation, read-out: EC50, HL-60) of 7.7 nM. It also gave an EC50 ([13]; ATP luminescence, 72 h incubation, read-out: EC50 HPAC (72 h)) of 5.9 nM, an EC50 ([14]; 3H thymidine method, 72 h incubation, read-out: EC50, BT474) of over 100 nM and an EC50 ([15]; 3H thymidine method, 72 h incubation, read-out: EC50, U-87 MG) of over 100 nM. The EC50 ([16]; 3H thymidine method, 72 h incubation, read-out: EC50, DMS53) was over 100 nM, the EC50 ([17]; ATP luminescence, SW-620, 96 h incubation, read-out: EC50 SW-620 (96 h)) was 21 nM and the EC50 ([18]; ATP luminescence, 786-O, 72 h incubation, read-out: EC50 786-O (72 h)) was 29 nM.
In the case of CC[C@H](C)[C@H](NC(=O)[C@H]1CCCCN1C)C(=O)N(C)[C@H](C[C@@H](OC)c1nc(C(=O)N[C@H](CC(=O)OC)Cc2ccccc2)cs1)C(C)C [Compound 25], the EC50 [1, 19] is reported as 319 nM, the EC50 [2, 20] is reported as 166 nM and the EC50 [3, 21] is reported as 1860 nM. It also gave an EC50 [4, 22] of 83 nM, an EC50 [5, 23] of 180 nM and an EC50 [6, 24] of 270 nM. For the same compound, the EC50 [7, 25] was over 3000 nM, the EC50 [8, 26] was 109 nM and the EC50 [9, 27] was 396 nM. For the same compound, the EC50 [10, 28] was 759 nM, the EC50 ([11]; Homo sapiens, RPMI-8226, 72 h, read-out: EC50 RPMI-8226 (72 h), ATP luminescence, RPMI-8226, 72 h incubation) was 235 nM and the EC50 [12, 29] was 308 nM. For the same compound, the EC50 [13, 30] was 97 nM, the EC50 [14, 31] was 804 nM and the EC50 [15, 32] was 271 nM. The EC50 [16, 33] was 515 nM, the EC50 [17, 34] was 193 nM and the EC50 [18, 35] was 306 nM.
CC[C@H](C)[C@H](NC(=O)[C@H]1CCCCN1C)C(=O)N(C)[C@H](C[C@@H](OC)c1nc(C(=O)N[C@H](CCC(=O)OC)Cc2ccccc2)cs1)C(C)C [Compound 26] gave an EC50 [1, 19] of 16 nM, an EC50 [2, 20] of 19 nM and an EC50 [3, 21] of 26 nM. It also gave an EC50 [4, 22] of 3.9 nM, an EC50 [5, 23] of 4.6 nM and an EC50 [6, 24] of 18 nM. For the same compound, the EC50 [7, 25] was over 300 nM, the EC50 [8, 26] was 38 nM and the EC50 [9, 27] was 7.7 nM. It also gave an EC50 [10, 28] of 240 nM, an EC50 ([11]; Homo sapiens, RPMI-8226, 48 h, read-out: EC50 RPMI-8226 (48 h), ATP luminescence, RPMI-8226, 48 h incubation) of 45 nM and an EC50 [12, 29] of 0.45 nM. For the same compound, the EC50 [13, 30] was 279 nM, the EC50 [14, 31] was 11 nM and the EC50 [15, 32] was 5.2 nM. For the same compound, the EC50 [16, 33] was 99 nM, the EC50 [17, 34] was 48 nM and the EC50 [18, 35] was 126 nM.
